Measurements published in patent US9957270B2, “Fused pyrimidine-based hydroxamate derivatives” (Agency for Science, Technology and Research, priority 2014, dated 2018).

Experiments:
[1] = tested on: histone 3 (Lys 9) and α-tubulin acetylation (HDACs) in PC-3 cells; experiment: Western blot, acetylation of histone 3 (Lys 9) and α-tubulin in PC-3 cells; assay type: cell-based, human; settings: 24 h, 1 or 10 μM
Procedure: Proteins in cell lysates are resolved by SDS-PAGE and transferred to PVDF and probed with appropriate primary and secondary antibodies. […] Representative Western blot images are shown in FIG. 15 and analyzed results are presented by FIGS. 17 to 20.
PC-3 cells were treated with test compounds at the following concentrations (all contain 0.1% DMSO) for 24 h at 37° C., and then processed according to section of Western Blot Analysis.
The graph represents results from two Western Blot analyses. […] Vehicle DMSO (0.1%) was used as blank control, and its acH3 level was normalized to 1. Y Axis is expressed as Mean±SD if applicable.
Vehicle DMSO (0.1%) as blank control, and its acetylation level was normalized to 1. Y Axis is expressed as Mean±SD if applicable.

[2] = Microsomal stability, human liver microsomes; settings: human, microsomes, 0.75 h, 5 μM, pH 7.4
Summary of the method: (§1)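 Liver microsomes at 0.5 mg/mL protein incubated with compound for 30 min (mouse), 45 min (rat), or 30 or 45 min (human). Reaction stopped with ice-cold acetonitrile containing 0.3% formic acid; % parent remaining measured by LC-MS.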

[3] = target: T1, PI3Kα (Homo sapiens, UniProt P42336); experiment: Kinase enzyme assay (ADP-Glo), PI3Kα; assay type: biochemical; settings: read-out: In Vitro Enzymatic IC50 PI3Kα
T1 construct: purchased Invitrogen, or BPS Bioscience Inc., or SignalChem PV4788 / 40620 / P27-18H

[4] = Microsomal stability, rat liver microsomes; settings: rat, microsomes, 0.75 h, 5 μM, pH 7.4
Summary of the method: as §1

[5] = tested on: PC-3 tumors; experiment: Target modulation in PC-3 prostate cancer xenograft (histone H3 acetylation, Western blot); assay type: in vivo, mouse; settings: BALB/c nude mice, oral, EX1 150 mg/kg, EX78 100 mg/kg
From the text: Blood samples, tumors and other tissues were collected for PK/PD studies at the indicated time points (two mice each time point).
The lanes and the concentrations used were as follows: […]

[6] = Microsomal stability, mouse liver microsomes; settings: mouse, microsomes, 0.5 h, 5 μM, pH 7.4
Summary of the method: as §1

[7] = target: T2, PI3Kβ (Homo sapiens, UniProt P42338); experiment: Kinase enzyme assay (ADP-Glo), PI3Kβ; assay type: biochemical; settings: read-out: In Vitro Enzymatic IC50 PI3Kβ
T2 construct: purchased SignalChem or BPS P28-10H / 40622
T2 sequence (P42338 whole entry): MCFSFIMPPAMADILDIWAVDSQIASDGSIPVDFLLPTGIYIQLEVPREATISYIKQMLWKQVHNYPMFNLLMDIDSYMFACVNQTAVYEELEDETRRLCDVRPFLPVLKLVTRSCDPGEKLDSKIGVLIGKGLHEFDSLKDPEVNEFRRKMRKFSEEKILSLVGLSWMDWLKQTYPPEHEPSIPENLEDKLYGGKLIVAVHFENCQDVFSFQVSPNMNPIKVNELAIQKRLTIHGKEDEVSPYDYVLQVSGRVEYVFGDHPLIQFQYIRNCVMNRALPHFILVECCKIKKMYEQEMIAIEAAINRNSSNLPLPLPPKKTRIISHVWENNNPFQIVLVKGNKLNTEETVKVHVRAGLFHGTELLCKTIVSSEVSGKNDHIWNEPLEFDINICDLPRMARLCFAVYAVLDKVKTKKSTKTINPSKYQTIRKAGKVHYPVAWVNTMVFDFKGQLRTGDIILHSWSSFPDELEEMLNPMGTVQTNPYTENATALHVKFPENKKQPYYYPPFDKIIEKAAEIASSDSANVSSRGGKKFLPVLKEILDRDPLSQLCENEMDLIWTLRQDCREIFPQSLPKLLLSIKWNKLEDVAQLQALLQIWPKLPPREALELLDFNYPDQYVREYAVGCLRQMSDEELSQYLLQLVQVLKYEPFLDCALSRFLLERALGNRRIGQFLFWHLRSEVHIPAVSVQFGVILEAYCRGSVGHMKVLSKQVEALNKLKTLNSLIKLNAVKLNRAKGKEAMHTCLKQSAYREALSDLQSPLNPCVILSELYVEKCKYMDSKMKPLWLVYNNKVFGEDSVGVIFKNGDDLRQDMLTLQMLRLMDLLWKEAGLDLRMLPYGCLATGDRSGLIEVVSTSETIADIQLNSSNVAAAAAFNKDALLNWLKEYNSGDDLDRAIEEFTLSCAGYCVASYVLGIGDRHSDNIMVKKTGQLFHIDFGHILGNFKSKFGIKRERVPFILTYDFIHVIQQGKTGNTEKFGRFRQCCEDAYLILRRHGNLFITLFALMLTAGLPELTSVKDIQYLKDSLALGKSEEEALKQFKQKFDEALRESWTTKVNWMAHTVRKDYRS
T2 sequence (P27986 whole entry partner): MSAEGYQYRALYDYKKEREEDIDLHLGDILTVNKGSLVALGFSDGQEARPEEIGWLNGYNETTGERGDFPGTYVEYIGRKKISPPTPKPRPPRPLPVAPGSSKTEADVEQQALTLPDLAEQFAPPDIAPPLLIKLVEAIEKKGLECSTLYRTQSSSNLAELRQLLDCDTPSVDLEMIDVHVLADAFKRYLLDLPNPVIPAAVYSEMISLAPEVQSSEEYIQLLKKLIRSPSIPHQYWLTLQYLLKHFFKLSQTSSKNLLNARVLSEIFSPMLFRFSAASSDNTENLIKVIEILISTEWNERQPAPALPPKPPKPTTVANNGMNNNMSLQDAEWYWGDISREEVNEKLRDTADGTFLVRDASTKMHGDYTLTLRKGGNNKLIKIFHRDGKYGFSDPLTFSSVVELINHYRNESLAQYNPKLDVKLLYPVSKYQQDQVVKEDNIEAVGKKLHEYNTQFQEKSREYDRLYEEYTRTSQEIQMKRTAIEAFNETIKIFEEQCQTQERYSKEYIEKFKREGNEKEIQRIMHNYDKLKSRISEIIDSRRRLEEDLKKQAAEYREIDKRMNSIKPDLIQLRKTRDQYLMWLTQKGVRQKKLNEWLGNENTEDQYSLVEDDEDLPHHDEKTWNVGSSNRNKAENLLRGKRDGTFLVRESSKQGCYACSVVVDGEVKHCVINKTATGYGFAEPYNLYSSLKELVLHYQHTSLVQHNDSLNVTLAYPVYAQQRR

T1 sequence (P42336 whole entry): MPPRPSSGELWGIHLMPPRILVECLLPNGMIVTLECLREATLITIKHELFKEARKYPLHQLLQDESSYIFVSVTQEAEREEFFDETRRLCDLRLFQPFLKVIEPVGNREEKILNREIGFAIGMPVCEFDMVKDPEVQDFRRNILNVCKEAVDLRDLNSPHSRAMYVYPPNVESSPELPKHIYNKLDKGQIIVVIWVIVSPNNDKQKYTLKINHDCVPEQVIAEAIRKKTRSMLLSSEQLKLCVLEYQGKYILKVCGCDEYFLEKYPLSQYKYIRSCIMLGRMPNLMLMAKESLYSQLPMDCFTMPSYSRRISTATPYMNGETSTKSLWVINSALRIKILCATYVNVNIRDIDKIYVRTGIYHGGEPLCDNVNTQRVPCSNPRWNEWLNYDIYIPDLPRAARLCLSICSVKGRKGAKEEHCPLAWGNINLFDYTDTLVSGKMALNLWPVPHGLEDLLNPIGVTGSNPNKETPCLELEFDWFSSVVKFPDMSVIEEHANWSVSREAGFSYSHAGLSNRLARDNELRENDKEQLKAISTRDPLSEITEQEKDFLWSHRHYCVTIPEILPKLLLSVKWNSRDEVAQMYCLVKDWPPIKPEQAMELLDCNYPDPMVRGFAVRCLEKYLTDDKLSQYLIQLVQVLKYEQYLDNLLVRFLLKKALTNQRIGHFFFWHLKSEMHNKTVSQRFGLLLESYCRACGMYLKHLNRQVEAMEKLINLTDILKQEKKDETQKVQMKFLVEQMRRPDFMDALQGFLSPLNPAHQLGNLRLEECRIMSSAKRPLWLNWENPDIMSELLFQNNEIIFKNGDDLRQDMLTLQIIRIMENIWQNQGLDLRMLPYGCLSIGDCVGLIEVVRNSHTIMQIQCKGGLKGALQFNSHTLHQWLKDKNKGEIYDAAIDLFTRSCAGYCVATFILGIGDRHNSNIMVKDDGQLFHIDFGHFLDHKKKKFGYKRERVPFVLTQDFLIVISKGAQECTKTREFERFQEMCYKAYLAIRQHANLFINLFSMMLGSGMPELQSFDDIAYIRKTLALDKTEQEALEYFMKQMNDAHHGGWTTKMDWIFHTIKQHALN
T1 sequence (P27986 whole entry partner): as the sequence (P27986 whole entry partner) above

Row | SMILES | Hyperacetylation of histone 3 (Lys 9) and α-tubulin [1] | Microsomal Stability HLM, % of remaining parent compound [2] [%] | IC50 [3] [nM] | Microsomal Stability RLM, % of remaining parent compound [4] [%] | Hyperacetylation of H3 in PC-3 tumors [5] | Microsomal Stability MLM, % of remaining parent compound [6] [%] | IC50 [7] [nM]
1 | CC(C)n1cnc2c(-c3cccc(OCCCC(=O)NO)c3)nc(N3CCOCC3)nc21 [compound 1] | the hyperacetylation effect is dose-dependent | 101 | 1000 to 10000 | 70 | Hyperacetylation of H3 in PC-3 tumors was confirmed | 96 | 
2 | CCn1c(CN(C)Cc2ccc(C(=O)NO)cc2)nc2c(N3CCOCC3)nc(-c3cnc(N)nc3)nc21 [compound 7] |  |  | 10 to 100 |  |  |  | 10 to 100
